From ChEMBL document CHEMBL3120108, “Direct interaction of garcinol and related polyisoprenylated benzophenones of Garcinia cambogia fruits with the transcription factor STAT-1 as a likely mechanism of their inhibitory effect on cytokine signaling pathways” (J Nat Prod, 2014)
Calls of active or inactive are those of the source. The calls are words filed in the database; no cut-off is given here.

Assays:
[1] = molecular target: T1, Signal transducer and activator of transcription 1-alpha/beta (Homo sapiens, UniProt P42224); experiment: Binding affinity to STAT1 (unknown origin) by surface plasmon resonance assay
T1 sequence (P42224 whole entry): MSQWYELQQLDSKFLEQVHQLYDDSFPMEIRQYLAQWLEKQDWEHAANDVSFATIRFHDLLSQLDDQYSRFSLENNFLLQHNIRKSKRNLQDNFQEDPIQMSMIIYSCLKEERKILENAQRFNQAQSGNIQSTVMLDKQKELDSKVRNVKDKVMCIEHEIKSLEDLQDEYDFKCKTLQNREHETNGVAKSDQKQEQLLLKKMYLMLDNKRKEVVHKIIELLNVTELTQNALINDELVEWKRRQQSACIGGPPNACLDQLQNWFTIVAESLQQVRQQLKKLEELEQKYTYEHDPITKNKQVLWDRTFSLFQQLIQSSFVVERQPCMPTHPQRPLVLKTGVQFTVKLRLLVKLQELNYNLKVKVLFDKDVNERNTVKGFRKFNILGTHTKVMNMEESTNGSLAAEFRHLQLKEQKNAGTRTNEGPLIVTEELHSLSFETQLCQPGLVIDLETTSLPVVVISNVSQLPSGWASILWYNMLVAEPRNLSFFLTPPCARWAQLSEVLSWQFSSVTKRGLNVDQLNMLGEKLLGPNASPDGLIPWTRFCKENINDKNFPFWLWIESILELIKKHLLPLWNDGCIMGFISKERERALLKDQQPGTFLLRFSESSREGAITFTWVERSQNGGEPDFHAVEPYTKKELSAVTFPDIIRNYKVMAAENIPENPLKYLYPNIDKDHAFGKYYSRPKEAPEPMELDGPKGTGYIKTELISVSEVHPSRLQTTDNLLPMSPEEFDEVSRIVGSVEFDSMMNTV

INS-1E = experiment: Inhibition of TNFalpha-induced NFkappaB activation in rat INS-1E cells assessed as reduction of NFkappaB-DNA binding activity at 25 uM preincubated for 30 mins followed by cytokine challenge measured after 60 mins by electrophoretic mobility shift assay; type: cell-based
[2] = molecular target: T2, Signal transducer and activator of transcription 1 (Rattus norvegicus) (UniProt Q6P6Q7); experiment: Inhibition of INFgamma-induced STAT1 activation in rat INS-1E cells assessed as reduction of STAT1-DNA binding activity at 25 uM preincubated for 30 mins followed by cytokine challenge measured after 60 mins by electrophoretic mobility shift assay; type: cell-based
T2 sequence (whole entry): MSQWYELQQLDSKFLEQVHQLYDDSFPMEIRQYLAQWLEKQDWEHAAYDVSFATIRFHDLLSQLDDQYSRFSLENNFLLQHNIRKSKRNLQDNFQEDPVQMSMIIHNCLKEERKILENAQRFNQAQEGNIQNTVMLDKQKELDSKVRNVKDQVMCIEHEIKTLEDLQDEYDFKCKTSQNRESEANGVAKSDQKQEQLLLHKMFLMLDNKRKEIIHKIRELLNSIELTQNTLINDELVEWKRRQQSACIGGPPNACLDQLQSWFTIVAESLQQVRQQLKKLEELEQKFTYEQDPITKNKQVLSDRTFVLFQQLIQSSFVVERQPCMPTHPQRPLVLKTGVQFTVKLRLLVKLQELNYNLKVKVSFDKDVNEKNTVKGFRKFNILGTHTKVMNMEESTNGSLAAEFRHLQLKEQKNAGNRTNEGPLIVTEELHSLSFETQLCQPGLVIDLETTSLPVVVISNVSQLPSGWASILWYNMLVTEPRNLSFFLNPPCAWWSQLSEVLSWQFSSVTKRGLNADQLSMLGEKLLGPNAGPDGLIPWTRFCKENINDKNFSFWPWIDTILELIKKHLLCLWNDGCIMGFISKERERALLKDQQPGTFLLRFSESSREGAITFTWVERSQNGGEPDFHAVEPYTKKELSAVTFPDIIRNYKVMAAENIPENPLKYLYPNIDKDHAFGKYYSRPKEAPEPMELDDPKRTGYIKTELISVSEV

[3] = molecular target: T3, Signal transducer and activator of transcription 1-alpha/beta (Homo sapiens) (UniProt P42224); experiment: Inhibition of INFgamma-induced STAT1 activation in human […] cells assessed as reduction of STAT1-DNA binding activity preincubated for 30 mins followed by cytokine challenge measured after 60 mins by electrophoretic mobility shift assay; type: cell-based
T3 sequence (whole entry): T1 sequence (P42224 whole entry)

[4] = molecular target: T3, Signal transducer and activator of transcription 1-alpha/beta (Homo sapiens); experiment: Inhibition of INFgamma-induced STAT1 activation in human […] cells assessed as reduction of STAT1-DNA binding activity at 25 uM preincubated for 30 mins followed by cytokine challenge measured after 60 mins by electrophoretic mobility shift assay; type: cell-based
MDA-MB-231 [5] = experiment: Inhibition of TNFalpha-induced NFkappaB activation in human MDA-MB-231 cells assessed as reduction of NFkappaB-DNA binding activity at 50 uM preincubated for 30 mins followed by cytokine challenge measured after 60 mins by electrophoretic mobility shift assay; type: cell-based
MDA-MB-231 [6] = experiment: Inhibition of TNFalpha-induced NFkappaB activation in human MDA-MB-231 cells assessed as reduction of NFkappaB-DNA binding activity preincubated for 30 mins followed by cytokine challenge measured after 60 mins by electrophoretic mobility shift assay; type: cell-based
[7] = molecular target: T3, Signal transducer and activator of transcription 1-alpha/beta (Homo sapiens); experiment: Inhibition of INFgamma-induced STAT1 activation in human […] cells assessed as reduction of STAT1-DNA binding activity at 50 uM preincubated for 30 mins followed by cytokine challenge measured after 60 mins by electrophoretic mobility shift assay; type: cell-based
[8] = molecular target: T3, Signal transducer and activator of transcription 1-alpha/beta (Homo sapiens); experiment: Inhibition of STAT1 in human […] cells assessed as suppression of INFgamma-induced SOCS-1 expression at 25 to 40 uM by Northern blotting technique; type: cell-based
[9] = molecular target: T2, Signal transducer and activator of transcription 1 (Rattus norvegicus); experiment: Inhibition of INFgamma-induced STAT1 activation in rat INS-1E cells assessed as reduction of STAT1-DNA binding activity at 10 uM preincubated for 30 mins followed by cytokine challenge measured after 60 mins by electrophoretic mobility shift assay; type: cell-based

Kd [1] [µM] | inhibition [2] | inhibition [3] | inhibition [4] | inhibition [7] | inhibition [8] | inhibition [9] | Structure (SMILES) | inhibition (INS-1E) | inhibition (MDA-MB-231 [5]) | inhibition (MDA-MB-231 [6])
16.9 | Active | Dose-dependent effect | Active | – | – | – | C=C(C)[C@@H](CC=C(C)C)C[C@@]12C[C@@H](CC=C(C)C)C(C)(C)[C@@](CC=C(C)C)(C(=O)C(C(=O)c3ccc(O)c(O)c3)=C1O)C2=O [GARCINOL] | Active | Active | Dose-dependent effect
4.67 | inactive | Dose-dependent effect | – | Active | – | – | CC(C)=CCC/C(C)=C/C[C@@]12C[C@H](CC=C(C)C)C(C)(C)[C@@](CC=C(C)C)(C(=O)C(C(=O)c3ccc(O)c(O)c3)=C1O)C2=O | inactive | inactive | –
20.6 | Active | Dose-dependent effect | – | Active | Active | Active | CC(C)=CCC[C@@]1(C)[C@H](CC=C(C)C)C[C@]2(CC=C(C)C)C(=O)[C@@]1(CC=C(C)C)C(=O)C(C(=O)c1ccc(O)c(O)c1)=C2O [GUTTIFERONE K] | – | – | –

Structure (SMILES) | Kd [1] [µM] | inhibition [2] | inhibition [3] | inhibition [4] | inhibition [7] | inhibition [8] | inhibition [9] | inhibition (INS-1E) | inhibition (MDA-MB-231 [5]) | inhibition (MDA-MB-231 [6])
O=C(O[C@@H]1Cc2c(O)cc(O)cc2O[C@@H]1c1cc(O)c(O)c(O)c1)c1cc(O)c(O)c(O)c1 [EPIGALOCATECHIN GALLATE] | 0.7 | – | – | – | – | – | – | – | – | –
